From US12263140B1, “Methods of reducing the production of greenhouse gases from animals” (AGRICULTURAL SCIENCES LIMITED, priority 2023, dated 2025)

Key:
Format in all cases: in vivo
sheep [1] = assay: Sheep weight gain trial, vitamin K3 in drinking water, 22 days
Text: A trial was completed using three randomly selected Wiltshire hogget wether sheep as the test subjects chosen from a wider group of sheep.
The test subject sheep were allowed access to the dosed water for a total of 5 days, after which the confinement was removed and the test subject and un-dosed control sheep mixed in the same field. From day 6 the test sheep grazed the wider field and received only un-dosed tap water, identical to the control sheep (see below).
The remaining wider group of sheep post removal of the three test subject sheep became the control sheep which were contained in a wider part of the same field as the test subject sheep for the first five days and then mixed with the test subject sheep after five days as noted above. The control sheep had access ad libitum to un-dosed tap water during the first five days of the trial and, as noted, the test sheep and control sheep both had access to the same tap water source ad libitum post the initial five days and to the trial end.
To account for this, two mature ewes from a neighbouring property (“naïve” sheep controls) were introduced to graze in the same field as the control sheep (and post day 5, the control and test sheep). The naïve sheep also had ad libitum access to un-dosed tap water for the duration of the trial. It was envisaged that the naïve sheep would re-infect the control and test sheep with methanogens once in the same field.
The sheep from each group were weighed at the start of the trial and after 22 days had concluded. The weight gain (or loss) was then calculated being the difference between the 22 day weight and that measured at the trial start.

sheep [2] = assay: Metabolic chamber trial of sheep drenched with vitamin K3
Description: Six one year old self shedding wether Wiltshire sheep were ranked by body weight and divided in to three strata or blocks. Block one contained the lightest sheep. Block 2 the mid-sized sheep, and Block 3 the heaviest sheep. Each of the sheep in each block was assigned at random to either be a control or experimental (dosed) individual.
The control group were not dosed at all.
Testing was completed at dosing and after 24 hours of methane emissions using a metabolic chamber. • The metabolic chamber used was made of sealed panel. All joints were made gas tight by sealing compounds, and the doors and hatches were made gas tight by rubber seals. The gas-tight metabolic chamber had viewing windows on one side, the top, and the exit door. Sheep entered after being weighed through an entrance door at one end. All doors and hatches were sealed by pull-down latches. • Air was introduced into the chamber by a 25 mm pipe assembly with the intake located in a pure air space area outside the work and animal holding areas. The air was propelled into the chamber by an electric impeller. The flow rate was set at 5 m·s^−1. Air inside the chamber was mixed by carefully placed baffles and an electric impeller to ensure even composition even when the animal burped out methane periodically.
When a sheep was introduced into the chamber it generally took between 2 and 3 minutes before the gas composition equilibrated and stayed constant. Readings were taken for few minutes once the gas levels had stabilised.
The dosing compound used as noted above, was human grade synthetic vitamin K3. This was dosed to the sheep as an aqueous oral fed drench.
A longer trial to the above was then completed with the same sheep.
Methane, carbon dioxide, volatile organic carbon (VOC) gas emissions and weight gain were measured at intervals during the trial time period of 241.2 hours.
Between being brought in for weighing and measuring, the sheep were allowed to graze normally on a grass field.

sheep [3] = assay: as above; settings: Example 15 text; stated to be based on earlier experiments using the Douglas Bag technique
sheep [4] = assay: CO2 in exhalant of sheep dosed with vitamin K3 in drinking water; settings: FIG. 24
sheep [5] = assay: Sheep methane output trial, vitamin K3 in drinking water; settings: approximately 2 g per 20 litres drinking water; 48 h to 148 h, FIG. 21
Description: A trial was completed using Wiltshire hogget wether sheep.
The test sheep were able to drink further dosed water ad libitum while control sheep only had ad libitum access to tap water (un-dosed). Methane emitted by the test and control sheep was collected and emissions measured at intervals (48 h, 96 h, 120 h, 148 h).

sheep [6] = assay: TVOC and HCHO in exhalant breath of sheep dosed with vitamin K3 (skatole proxy)
Description: A trial was completed comparing the breath of test subject sheep dosed with vitamin K3 versus that of un-dosed sheep.
Total volatile organic compounds were measured in the exhalant breath of sheep. Two measurements were made being: • TVOC (Total Volatile Organic Compounds); and • HCHO (formaldehyde or equivalents).

[7] = Controls group: un-dosed water in trial, but dosed with vitamin K3 around two months before
[8] = Dosed group: 1.87 g in 20 litres drinking water, access for 5 days

## vitamin K
Sheep [1]; 22 days
  weight gain of control group (dosed two months earlier) relative to naïve sheep: 4-5 ×
Sheep [2]; Example 15
  animal growth rate: increase in animal growth rate

## CC1=CC(=O)c2ccccc2C1=O [vitamin K3]
Sheep [3]
  average reduction in carbon dioxide emissions: 92%
Sheep [4]
  CO2 volume produced, less than control sheep: 3 ×
Sheep [5]
  methane emissions levels lower than control sheep: 3-4 times
Sheep [6]; FIG. 22
  TVOC in breath, less than in un-dosed sheep: 4-5 times
Sheep [6]; inventor's observations, dosed sheep thrived
  impact on favourable indole compounds: no negative impact
Sheep [1]; [7]
  Daily weight gain: 0.064
  Wt. Gain (kg) after 22 days: 1.400 kg
Sheep [1]; [8]
  Daily weight gain: 0.238
  Wt. Gain (kg) after 22 days: 5.233 kg
Sheep [2]; Example 14, 24 hours post dosing
  methane in one trial sheep: no detectable trace of methane
Sheep [2]; Example 14, single drench 75 mg (76 mg) in 15 ml water, dosing to 24 hours
  average reduction in methane emissions versus control sheep: 96.4%
Sheep [2]; Example 15
  distress during the trial: showed no distress
  greatest reduction of methane emissions in any sheep: 100%
  lowest value of the emission of methane from any sheep on any occasion: zero
Sheep [2]; Example 15, FIG. 18, metabolic chamber, from 1271 ppm
  CO2 concentration after dosing, before subtracting air baseline: 610 ppm
Sheep [2]; Example 15, FIG. 19, R2=0.781
  slope of best fit linear equation of mean body weight against HOURS: 2.18E-01
Sheep [2]; Example 15, FIG. 20
  total VOC in exhalant breath: decreased over time
Sheep [2]; Example 15, single drench 75 mg in 15 ml water, 241.2 hours trial
  average reduction in methane emissions: 80.5%
Sheep [2]; Example 15, whole trial duration, no extra dosing
  duration of the reduction in methane emissions after the single dose: 241.2 h
